Values of other authors in patent publication US20020051978A1, “Methods and compositions for the identification, assessment, prevention and therapy of human cancers” (priority 2000, published 2002).
Where two headings read alike, the source gives them in different places.

System: 60 cancer cell lines (NCI 60 cancer cell line series)
Details: cited from earlier work

## CS(=O)(=O)OCCCCOS(C)(=O)=O [Busulfan]
Breast BT-549 (CL5013)
  -Log (GI50): 3.6
Breast HS-578T CL5006
  -Log (GI50): 3.6
Breast MCF7(I) (CL5001)
  -Log (GI50): 3.7
Breast MCF7/ADRr (CL5002)
  -Log (GI50): 3.6
Breast MDA-MB-231 CL5005
  -Log (GI50): 3.6
Breast MDA-MB-435 (CL5011)
  -Log (GI50): 3.6
Breast MDA-N CL5012
  -Log (GI50): 3.7
Breast T-47D (CL5014)
  -Log (GI50): 3.6
CNS SF-268 CL12014
  -Log (GI50): 3.8
CNS SF-295 CL12015
  -Log (GI50): 3.7
CNS SF-539 CL12016
  -Log (GI50): 3.6
CNS SNB-19 (CL12002)
  -Log (GI50): 3.6
CNS SNB-75(I) CL12005
  -Log (GI50): 3.8
CNS U251(I) CL12009
  -Log (GI50): 3.6
Colon COLO-250 CL4010
  -Log (GI50): 3.6
Colon HCC-2998 (CL4002)
  -Log (GI50): 3.7
Colon HCT-15 CL4015
  -Log (GI50): 3.6
Colon HCT-116 (CL4003)
  -Log (GI50): 3.6
Colon HT29(I) CL4001
  -Log (GI50): 3.6
Colon KM12 (CL4017)
  -Log (GI50): 3.6
Colon SW-620 (CL4009)
  -Log (GI50): 3.7
Leukemia CCRF-CEM(I) (CL7003)
  -Log (GI50): 3.8
Leukemia HL-60(I) (CL7008)
  -Log (GI50): 3.8
Leukemia K562(I) CL7005
  -Log (GI50): 3.6
Leukemia MOLT-4 (CL7006)
  -Log (GI50): 3.9
Leukemia RPMI-8226(I) (CL7010)
  -Log (GI50): 3.6
Leukemia SR CL7019
  -Log (GI50): 4.1
Melanoma LOX IMVI CL10001
  -Log (GI50): 3.7
Melanoma M14 (CL10014)
  -Log (GI50): 3.6
Melanoma MALME-3M CL10002
  -Log (GI50): 3.6
Melanoma SK-MEL-2 (CL10005)
  -Log (GI50): 3.6
Melanoma SK-MEL-5 (CL10007)
  -Log (GI50): 3.6
Melanoma SK-MEL-28 (CL10008)
  -Log (GI50): 3.7
Melanoma UACC-62 (CL10020)
  -Log (GI50): 3.7
Melanoma UACC-257 (CL10021)
  -Log (GI50): 3.7
NCSLC NCI-H522 CL1003
  -Log (GI50): 3.6
NSCLC A549/ATCC (CL1004)
  -Log (GI50): 3.7
NSCLC EKVX (CL1008)
  -Log (GI50): 3.7
NSCLC HOP-62 (CL1026)
  -Log (GI50): 3.7
NSCLC HOP-92 (CL1029)
  -Log (GI50): 3.8
NSCLC NCI-H23(I) CL1001
  -Log (GI50): 3.6
NSCLC NCI-H226 CL1013
  -Log (GI50): 3.7
NSCLC NCI-H332M CL1017
  -Log (GI50): 3.6
NSCLC NCI-H460 CL1021
  -Log (GI50): 4.0
Ovarian IGROV1 CL6010
  -Log (GI50): 3.6
Ovarian OVCAR-3 CL6001
  -Log (GI50): 3.7
Ovarian OVCAR-4 CL6002
  -Log (GI50): 3.7
Ovarian OVCAR-5 CL6003
  -Log (GI50): 3.6
Ovarian OVCAR-8 CL6005
  -Log (GI50): 3.6
Ovarian SK-OV-3 CL6011
  -Log (GI50): 3.6
Prostate DU-145 CL11003
  -Log (GI50): 3.7
Prostate PC-3(I) CL11001
  -Log (GI50): 3.6
Renal 786-O CL9018
  -Log (GI50): 3.6
Renal A498 CL9013
  -Log (GI50): 3.6
Renal ACHN CL9023
  -Log (GI50): 3.8
Renal CAKI-1 CL9015
  -Log (GI50): 3.9
Renal RXF-393 CL9016
  -Log (GI50): 3.9
Renal SN12C CL9008
  -Log (GI50): 3.6
Renal TK10 CL9024
  -Log (GI50): 3.6
Renal UO-31 CL9004
  -Log (GI50): 3.6

## O=C(O)CCCc1ccc(N(CCCl)CCCl)cc1 [Chlorambucil]
Breast BT-549 (CL5013)
  -Log (GI50): 4.0
Breast HS-578T CL5006
  -Log (GI50): 3.7
Breast MCF7(I) (CL5001)
  -Log (GI50): 4.5
Breast MCF7/ADRr (CL5002)
  -Log (GI50): 4.3
Breast MDA-MB-231 CL5005
  -Log (GI50): 3.8
Breast MDA-MB-435 (CL5011)
  -Log (GI50): 3.9
Breast MDA-N CL5012
  -Log (GI50): 3.9
Breast T-47D (CL5014)
  -Log (GI50): 4.3
CNS SF-268 CL12014
  -Log (GI50): 4.5
CNS SF-295 CL12015
  -Log (GI50): 4.4
CNS SF-539 CL12016
  -Log (GI50): 4.6
CNS SNB-19 (CL12002)
  -Log (GI50): 4.0
CNS SNB-75(I) CL12005
  -Log (GI50): 4.3
CNS U251(I) CL12009
  -Log (GI50): 4.4
Colon COLO-250 CL4010
  -Log (GI50): 3.9
Colon HCC-2998 (CL4002)
  -Log (GI50): 4.0
Colon HCT-15 CL4015
  -Log (GI50): 4.0
Colon HCT-116 (CL4003)
  -Log (GI50): 4.0
Colon HT29(I) CL4001
  -Log (GI50): 3.9
Colon KM12 (CL4017)
  -Log (GI50): 3.8
Colon SW-620 (CL4009)
  -Log (GI50): 4.1
Leukemia CCRF-CEM(I) (CL7003)
  -Log (GI50): 5.2
Leukemia HL-60(I) (CL7008)
  -Log (GI50): 5.1
Leukemia K562(I) CL7005
  -Log (GI50): 3.9
Leukemia MOLT-4 (CL7006)
  -Log (GI50): 5.3
Leukemia RPMI-8226(I) (CL7010)
  -Log (GI50): 4.1
Leukemia SR CL7019
  -Log (GI50): 5.2
Melanoma LOX IMVI CL10001
  -Log (GI50): 4.4
Melanoma M14 (CL10014)
  -Log (GI50): 4.2
Melanoma MALME-3M CL10002
  -Log (GI50): 4.2
Melanoma SK-MEL-2 (CL10005)
  -Log (GI50): 3.8
Melanoma SK-MEL-5 (CL10007)
  -Log (GI50): 4.1
Melanoma SK-MEL-28 (CL10008)
  -Log (GI50): 4.0
Melanoma UACC-62 (CL10020)
  -Log (GI50): 4.7
Melanoma UACC-257 (CL10021)
  -Log (GI50): 4.1
NCSLC NCI-H522 CL1003
  -Log (GI50): 4.6
NSCLC A549/ATCC (CL1004)
  -Log (GI50): 4.2
NSCLC EKVX (CL1008)
  -Log (GI50): 3.8
NSCLC HOP-62 (CL1026)
  -Log (GI50): 4.4
NSCLC HOP-92 (CL1029)
  -Log (GI50): 4.2
NSCLC NCI-H23(I) CL1001
  -Log (GI50): 4.6
NSCLC NCI-H226 CL1013
  -Log (GI50): 4.1
NSCLC NCI-H332M CL1017
  -Log (GI50): 3.7
NSCLC NCI-H460 CL1021
  -Log (GI50): 4.9
Ovarian IGROV1 CL6010
  -Log (GI50): 3.9
Ovarian OVCAR-3 CL6001
  -Log (GI50): 4.0
Ovarian OVCAR-4 CL6002
  -Log (GI50): 3.9
Ovarian OVCAR-5 CL6003
  -Log (GI50): 4.0
Ovarian OVCAR-8 CL6005
  -Log (GI50): 4.1
Ovarian SK-OV-3 CL6011
  -Log (GI50): 4.0
Prostate DU-145 CL11003
  -Log (GI50): 4.2
Prostate PC-3(I) CL11001
  -Log (GI50): 4.0
Renal 786-O CL9018
  -Log (GI50): 4.5
Renal A498 CL9013
  -Log (GI50): 3.9
Renal ACHN CL9023
  -Log (GI50): 4.8
Renal CAKI-1 CL9015
  -Log (GI50): 4.8
Renal RXF-393 CL9016
  -Log (GI50): 4.6
Renal SN12C CL9008
  -Log (GI50): 4.5
Renal TK10 CL9024
  -Log (GI50): 3.8
Renal UO-31 CL9004
  -Log (GI50): 4.2
